Test results from patent publication US20250200763A1, “4D FLUORESCENCE MICROSCOPY ORGANELLE NETWORK TRACKING” (THE REGENTS OF THE UNIVERSITY OF CALIFORNIA, priority 2022, published 2025).
Entries after “also recorded” stand apart in the source; their conditions may differ.

Key:
[1] = tested on: mitochondrial network in hiPSCs; test: Fission/fusion preference with respect to fragment size (normalized network fragment size difference); type: cell-based, human; details: hiPSCs with disrupted microtubules, vs DMSO control
Procedure: To detect fission and fusion events in the network, a sliding-window approach is applied to identify nodes that undergo persistent structural changes as opposed to transient segmentation variations. First, the fragment indices for each node are recorded for the half win size frames before and after the current frame, to form the fragment list. Second, for each network edge, the fragment lists for the connected nodes are compared. Fission will be declared if the fragment lists before the current frame are strictly identical, as well as the fragment lists after the current frame are strictly non-overlapping. Since fusion events can be considered as fission events reversed in time, the opposite criterion is used for fusion detection. In the case that multiple remodeling nodes are located in proximity (less than 5 edges away), the nodes are grouped into a single fission/fusion site. At last, the center of the sliding window is moved to the next frame and the computation is iterated.
To provide mechanistic insights into network remodeling, the motility between randomly selected nodes and nodes undergoing fission and fusion was compared. […] Based on node tracking, each individual mitochondrial network fragment can be tracked as shown in FIG. 17C and the selectivity of fission and fusion events recorded in terms of fragment size. […]

[2] = tested on: mitochondrial network in hiPSCs; test: Mitochondrial temporal network remodeling (mean degree difference, temporal intersection) from MitoTNT 4D tracking of LLSM data; type: cell-based, human; details: drug-treated; for mean degree difference (DD): control DD 0.28, low DD = little remodeling; for temporal intersection (TI): control TI 0.58, low TI = drastic remodeling
Procedure: To quantify mitochondrial network remodeling, the mean degree difference (DD) and the temporal intersection (TI) were calculated. A low DD indicates a low rate of nodes breaking off from their neighbors and reconnecting with other nodes. Inversely, a low TI implies that the network is very dynamic and does undergo drastic remodeling. […] In contrast, when treated with oligomycin, it was observed a 0.52 DD and 0.44 TI indicating a high level of network remodeling. Cytoskeleton influences drive network remodeling events were hypothesized.
Human induced pluripotent stem cell (hiPSC) culture: All studies involving hiPSCs were performed under approval from the University of California San Diego IRB/ESCRO committee. WTC hiPSCs expressing the CAAX domain of K-ras tagged with m TagRFP-T were created at the Allen Institute for Cell Science and obtained through the UCB Cell Culture Facility. hiPSC colonies were expanded on dishes coated with growth factor reduced Matrigel (Corning, 354230) in mTeSR1 (Stemcell Technologies, 85850) containing 1% penicillin/streptomycin (Gibco, 15140122). Colonies were washed with DPBS (Gibco, 14190144) and detached with accutase (Stemcell Technologies, 07920) before plating onto imaging dishes. Cultures were tested routinely for mycoplasma.
Drug Treatments: All drugs were dissolved in DMSO to make a stock solution and diluted in PBS to prepare a 100× working stock. Cells were treated with oligomycin (20 μM, 2 hr), nocodazole (5 uM, 30 min), and MDIVI-1 (10 μM, 12 hr) without wash.
Live cell imaging: 371 CAAX-RFPhiPSCs were stained with 100 nM Mito Tracker Green FM (Invitrogen, M7514) for 30 min prior to imaging. Cells were plated onto 25 mm MatTek dishes and imaged in phenol-red free mTeSR1 (Stemcell Technologies, 85850). Cells were kept under 5% CO2 and 37 degrees C. For imaging, Zeiss LLSM 7 was used with 10×N.A. 0.4 illumination objective lens and 48×375 N.A. 1.0 detection objective lens. Images were acquired in two channels: green channel with excitation at 488 nm and emission at 512 nm; red channel with excitation at 561 nm and emission at 597 nm. For both channels we used 18% laser power and 8 ms exposure. The illumination light-sheet was the Sinc3 beam with length 15 μm, thickness 650 nm and no side lobes. The volume size was 2048×448×57 pixels or 296.94×64.96×8.12 μm with isotropic pixel size 145 nm after coverglass transformation. Images were saved with bit depth 16 bits. For each region, 93 frames were imaged with frame rate 3.26 s per volume for total 5 min. For LLSM data processing, the Lattice Lightsheet 7 Processing Module on ZEN Blue was used for deconvolution, deskew, and cover glass transformation. Further processing is then done using MitoGraph and MitoTNT.

[3] = tested on: mitochondria networks in cells; test: Distribution of graph size ratio for fission/fusion events (preliminary 4D network tracking); type: cell-based; details: microtubule-disrupted cells vs DMSO control cells
Procedure: Preliminary results. 4D mitochondrial network tracking and fission/fusion statistics analysis indicate a selection bias in fission and fusion reaction in normal cells, which is not present when cells are treated with nocodazole. FIGS. 3A and 3B show data plots depicting a distribution of graph size ratio for fission/fusion events. Depicted is the normalized mitochondria fragment size immediately after or before fission or fusion events, respectively. Graph size ratio for a particular mitochondria undergoing fission/fusion computed as the size of the mitochondria network normalized by the total size of all mitochondria networks involved. Values close to 0 and 1 correspond to small and large mitochondria relative to the total size. The metric is calculated and plotted for every fragment undergoing detected fission/fusion events. FIGS. 3A and 3B illustrate histogram bars and gaussian-smoothed curves for fission and fusion. The gaussian-smoothed curves 310 and 330 are for fission and the gaussian-smoothed curves 320 and 340 are for fusion.

[4] = tested on: mitochondrial network in hiPSCs; test: Network reachability: random walk / material diffusion simulation on tracked temporal mitochondrial networks; type: cell-based, human; details: drug-treated, control 0.18
Procedure: To quantify transport across the 4D mitochondrial network, a random walk on the tracked temporal mitochondrial networks was simulated and the process was measured in the form of network reachability (see “Material diffusion simulation on temporal mitochondrial networks”). Reachability for a node indicates how easily can material/information reach this node from various parts of the overall network, via the time respecting paths defined by the network tracking.
Diffusion simulation was used on temporal dynamic mitochondrial network to understand the flow of material in mitochondrial networks. To calculate global reachability, we initiate a virtual token at every node of the mitochondrial network at the first timestep. Each token is labeled by the source node from which it originated. At every timestep, each node duplicates the tokens it currently has, and transfers them to the connected neighbors. At the end of the simulation, the global reachability for each node is quantified by the number of unique tokens at that node, corresponding to the number of source nodes this node can reach.
FIGS. 25A and 25B illustrate schematics for material diffusion simulation on temporal network. FIG. 25A illustrates the global reachability simulation. From each node, material can diffuse into the neighboring nodes or stay in the source node. All possible diffusion pathways over time are marked with an arrow. Time is depicted from left to right. Arrows in different thicknesses 2502, 2504, 2506, 2508, 2510, 2512 indicate representative simulation scenarios. After four timesteps, the target node labeled with X has accumulated three tokens (through the transport arrows). FIG. 25B illustrates the calculation for betweenness centrality used for determining the central nodes.
Drug Treatments: All drugs were dissolved in DMSO to make a stock solution and diluted in PBS to prepare a 100× working stock. Cells were treated with oligomycin (20 μM, 2 hr), nocodazole (5 uM, 30 min), and MDIVI-1 (10 μM, 12 hr) without wash. […]

[5] = tested on: mitochondrial network in hiPSCs; test: Mitochondrial network motility and motion correlation analysis by node tracking; type: cell-based, human
Source text: To measure the network motility of the mitochondrial network, mean-square-displacements (MSDs) vs. time delay curves are computed following previous works. The node ensemble averaged MSDs are plotted for control and oligomycin (See FIGS. 24A and 24B). The MSDs for single tracks are plotted for control and oligomycin (See FIGS. 24C and 24D). Around 80% of the nodes have a coefficient of determination for linear fit greater than 0.8 (see FIG. 15F). To map diffusivity onto mitochondrial nodes, the network nodes are firstly chosen at a center frame. Next, the node track coordinates 10 frames before and 10 frames after the center frame are collected. In a last step, the MSDs are computed at various time delays in this time window to determine the diffusivity of each node.
To compute vector correlation, the displacement vector is firstly obtained for a selected node at a selected frame. Next, the vector correlation is computed, as well as the vectors for the selected node at timepoints 1 frame before and after the selected frame. The vector correlation is computed between this vector and vectors for the nodes directly connected to it and given by the dot product of two vectors, divided by the square of the norm of the longer vector. The final correlation value for the selected node at the selected time is reported as the average of these two values.
To further investigate network branch motility, tracking vectors correlated between adjacent nodes on the same segment, and between the same node at consecutive frames. […] In contrast, temporal correlation between frames is predominantly zero (random motion) to slightly negative (oscillating motion), while interspersed with short period of positive values (directional motion) as shown in FIG. 16E. […] In FIG. 16F, the correlation along skeleton 1610 and the correlation in time 1620 are shown. The ATP synthase inhibitor oligomycin that induces mitochondrial fragmentation was employed to investigate if motion correlation findings are dependent upon network morphologies as shown in FIGS. 16G and 16H. […]

| SMILES | asymmetric fission/fusion events [1] | mean degree difference (DD) [2] | temporal intersection (TI) [2] | distribution of graph size ratio for fission/fusion events (selection bias) [3] | average reachability of network nodes [4] | motility of drug induced fragments ([5]; vs DMSO control) | spatial motion correlation (along skeleton) ([5]; vs control) | temporal motion correlation (between frames) ([5]; vs control) |
| --- | --- | --- | --- | --- | --- | --- | --- | --- |
| COC(=O)Nc1nc2ccc(C(=O)c3cccs3)cc2[nH]1 [nocodazole] | less pronounced but preserved; also recorded: a decrease in asymmetric fission/fusion | did not induce drastic changes | did not induce drastic changes | not present; also recorded: flatter distribution | 0.29 |  |  |  |
| CC[C@H]1/C=C/C=C/C[C@@H](C)[C@H](O)[C@@](C)(O)C(=O)[C@@H](C)[C@H](O)[C@@H](C)C(=O)[C@@H](C)[C@H](O)[C@@H](C)/C=C/C(=O)O[C@@H]2[C@H](C)[C@H](CC1)O[C@]1(CC[C@H](C)[C@H](C[C@@H](C)O)O1)[C@H]2C [oligomycin] |  | 0.52 | 0.44 |  | 0.64 | move considerably faster compared to control | dropped | remains similar |
| COc1cc(-n2c(=S)[nH]c3ccccc3c2=O)c(Cl)cc1Cl [mdivi-1] |  |  |  |  | 0.35 |  |  |  |
